Assay results taken from US20180147131A1, “COMPOSITION FOR ORAL CAVITY AND FOOD PRODUCT, OR BEVERAGE” (KABUSHIKI KAISHA SANGI, priority 2015, published 2018).

Assay: Remineralization test (artificial incipient caries, contact microradiogram, computer image analysis)
Parameters: species or system bovine
Details: conclusion from the remineralization tests of Examples and Comparative Examples
Source text: In order to confirm the remineralizing effect, a previously made artificial incipient caries test sample was used. For the making of the artificial incipient caries test sample, enamel on the labial surface of the crown portion of a bovine front tooth was used. The enamel surface was abraded with #1000, #2400, and #4000 abrasive paper. A window of about 5×3 mm was made with Nail Enamel (Manufactured by Shiseido Company, Limited) at a site to be tested, on the abraded enamel surface, and immersed in a 0.1 M lactate buffer solution (pH 4.8, 3.0 mmM CaCl2, 1.8 mmM KH2PO4, 1.0% CMC) at 37° C. for 4 days to make artificial incipient caries. […]
The effect of remineralizing the artificial incipient caries site was analyzed using a computer.
In image analysis by the computer, the amount of the remineralized mineral was calculated based on the formula of Angmer et al. (B. Angmer, D. Carlstrom and J. E. Glas: Studies on Ultrastructure of Dental Enemel IV: The Mineralization of normal Human Enamel, J. Ultrastructure. Res. 8, 12-23, 1963), and the amounts of the mineral lost AZ (% volume mineral·μm) at the control surface and treated surface of each section were calculated according to the method of Damato et al. (F. A. Damato, R. Stang and K. W. Stephen: Effect of Fluoride Concentration on Reminerelization of Carious Enamel: an in vitro pH-Cycling Study, Caries Res, 24, 174-180, 1990). […]

For sodium chondroitin sulfate, the “tooth remineralizing effect (in words)” value was “little tooth remineralizing effect”.
